From patent US8759318B2, “Phosphoramidate derivatives of guanosine nucleoside compounds for treatment of viral infections” (Inhibitex, Inc., priority 2009, dated 2014)

Columns and labels:
Influenza B strain Lee = assay: Cytoprotection assay, Influenza B; type: cell-based; settings: Influenza B virus, MDCK
Adenovirus Type 1 = assay: Cytoprotection assay, Adenovirus; type: cell-based; settings: Adenovirus Type I, HeLa
[1] = Mouse PK: 2'-C-methylguanosine triphosphate levels in liver; settings: 2'-C-methylguanosine triphosphate in mouse liver, 50 mg/kg PO
MDCK cells = settings: Influenza B assay
[2] = Protide stability in normal plasma, human; type: in vitro ADME; settings: 37° C.
Method: (§1) Selected nucleoside 5′-phosphoramidates were examined for stability in human, cynomolgous monkey, rat and mouse plasma at 37° C. at both 30 min and 90 min time points.
(§2) Protide Stability in Normal Plasma: Plasma samples were prepared for analysis as follows. 50 μl of each test sample were distributed a 96-well V-bottom plate. 200 μl of acetonitrile containing 10 ng/ml of an internal standard was added to each plasma sample. The precipitated samples were centrifuged at 2500 rpm, 4° C. for 20 minutes in a Sorvall RT6000S centrifuge (Thermo Scientific, Waltham Mass.) and 100 μl of supernatant from each sample was transferred into a 96 deep well plate followed by the addition of 100 μl H2O to each sample. Samples were covered, mixed well by vortexing and maintained at 2-8° C. before and during analysis. 15 μl of each test sample was analyzed for protide concentrations by liquid chromatography coupled to tandem mass spectrometry (LC-MS/MS). Liquid chromatography was performed with an Agilent 1100 Series HPLC system equipped with a Synergi 4 μm Polar-RP, 30×2.0 mm column (Phenomenex, Torrance, Calif.). The HPLC system was coupled to an API 4000 triple quadrupole mass spectrometer (Applied Biosystems, Framingham, Mass.). Mass spectrometry was performed in positive ion mode and data was analyzed using Analyst® v1.4.2 software (Applied Biosystems, Framingham, Mass.). Data was presented as the percentage of compound recovered as compared to the 0 time point control.

[3] = Protide stability in normal plasma, rat; type: in vitro ADME; settings: 37° C.
Method: as §1, §2

[4] = test system: Influenza A strain Hong Kong; assay: Cytoprotection assay, Influenza A; type: cell-based; settings: Influenza A virus, MDCK
in vitro [5] = settings: African green monkey
in vitro [6] = settings: dog
[7] = Cytotoxicity evaluation of the HCMV plaque reduction assay; type: cell-based; settings: human, MRC-5 cells; MRC-5, HCMV AD169 assay
Method: MRC-5 cells ((ATCC CCL-171) embryonal lung fibroblast, diploid, human) were used in plaque reduction assays with HCMV Strain AD169 (ATCC VR-538) and in cytoprotection assays with Rhinovirus strain 1B. They were grown in EMEM supplemented with 10% FBS, 0.1 mM non-essential amino acids, 1.0 mM sodium pyruvate, 2.0 mM L-Glutamine, 100 units/ml Penicillin and 100 μg/ml Streptomycin.
HCMV Plaque Reduction Assay: MRC-5 cells were seeded at 75,000 cells/well in 24 well plates. The plates were incubated overnight at 37° C. and 5% CO2. The following day, media was aspirated and approximately 100 plaque forming units (pfu) of HCMV AD169 was added to 21 wells of each plate in a volume of 200 μL of assay medium (MRC-5 growth medium containing 2% FBS rather than 10% FBS). The remaining three wells of each plate served as cellular control wells and received 200 μL of assay medium without virus. […] After a six day incubation period, cell viability was determined using CellTiter 96 Aqueous One Solution (Promega Corporation). […] Adhesive plate sealers were used in place of the lids, the sealed plates were inverted several times to mix the soluble formazan product and the plate was read spectrophotometrically at 490 and 650 nm with a Molecular Devices Vmax plate reader. […] A therapeutic (selectivity) index (TI) for each active compound was determined by dividing the TC50 by the IC50.

[8] = Compound cytotoxicity in cytoprotection assay (MTS), MRC-5; settings: human, MRC-5 cells
RSV strain Long = assay: Cytoprotection assay, RSV; type: cell-based; settings: human respiratory syncytial virus, Vero
[9] = test system: Bovine Viral Diarrhea Virus (BVDV) strain NADL; assay: Cytoprotection assay, BVDV; type: cell-based; settings: Bovine viral diarrhea virus isolates and strains, MDBK

COc1nc(N)nc2c1ncn2C1O[C@H](COP(=O)(N[C@@H](C)C(=O)OCC(C)(C)C)Oc2cccc3ccccc23)[C@@H](O)[C@@]1(C)O (stereo partly shown) [Example 20]
EC50 (Influenza B strain Lee): > 10 µM
EC50 (Adenovirus Type 1): > 10 µM
AUC0-6 [1]: 31940 ng·h/g
AUC0-24 [1]: 59353 ng·h/g
CC50 (MDCK cells): > 10 µM
% Compound Remaining Compared to %100 Acetonitrile Control ([2]; 30 min): 94.0%
% Compound Remaining Compared to %100 Acetonitrile Control ([2]; 1.5 h): 101.5%
% Compound Remaining Compared to %100 Acetonitrile Control ([3]; 30 min): 0%
% Compound Remaining Compared to %100 Acetonitrile Control ([3]; 1.5 h): 0%
EC50 [4]: > 10 µM
CC50 (in vitro [5]): > 10 µM
CC50 (in vitro [6]): > 10 µM
CC50 at 6 days [7]: 1.57 µM
CC50 at 7 days [8]: 3.08 µM
EC50 (RSV strain Long): > 10 µM
EC50 [9]: 0.748 µM
